Experimental findings from PMC9115314 (Biochemistry and Biophysics Reports, 2022) are described below.

Structures are written as SMILES.

In the test the target is h2E2 humanized anti-cocaine mAb. Description: differential scanning fluorimetry. The test is classed as binding, Homo sapiens. Particulars: read-out: Avg Kd (nM) ± Std. Dev. (fold increase vs unmodified h2E2 mAb). In general terms: In DSF a fluorescence change marks the thermal transition of the protein.
In the case of `CN1[C@H]2CC[C@@H]1[C@@H](C(=O)O)[C@@H](OC(=O)c1ccccc1)C2` [BE, benzoylecgonine], the Kd came to 177 ± 14 nM. The same measure for `CCOC(=O)[C@H]1[C@@H](OC(=O)c2ccccc2)C[C@@H]2CC[C@H]1N2C` [CE, cocaethylene]: 20.7 ± 4.1 nM; for `COC(=O)[C@H]1[C@@H](OC(=O)c2ccccc2)C[C@@H]2CC[C@H]1N2C` [Coc, cocaine]: 53 ± 6.8 nM.
